Here are results for 4 compounds from patent publication US8592490B2, “Self-microemulsifying drug delivery systems” (LEK Pharmaceuticals D.D., priority 2006, dated 2013).

Converted amounts (≈) assume the structure as drawn.

Data set [1] can be described thus: Solubility of candesartan cilexetil in water from solid state emulsion systems, room temperature. The settings on record: thermodynamic from solid, sample weight 50 mg in 100 ml. The format is physicochemical. As for the experimental part:
(§1) The solubility of candesartan cilexetil in water was studied at room temperature. Water dispersion (100 ml) of the sample in the laboratory beaker was mixed on the magnetic stirrer for 60 minutes. Afterwards, the part of the dispersion was taken from the beaker, filtered through the 0.45 μm filter and the concentration of candesartan cilexetil was determined by HPLC.

For data set [2] the following is noted: cited from earlier work.
Data set [3] is described as follows: Solubility of celecoxib in water from solid state emulsion systems. The class given is physicochemical. The settings on record: thermodynamic from solid, sample weight 100 mg, ultrasound. As for the experimental part: as §1
The solubility of celecoxib in water was determined with the same procedure as described in Example 7.

A short description of data set [4]: Stability of micronized vs unmicronised candesartan cilexetil at 40° C. and 75% humidity (impurities). The class given is physicochemical. The protocol: This approach is not appropriate for candesartan cilexetil, because any mechanical stress applied to the crystals of candesartan cilexetil leads to deterioration of the crystal structure and/or partial or complete (if mechanical stress is long enough) amorphisation, resulting in decreased stability. For example, when micronized candesartan cilexetil with d(0.9)=5 μm is subjected to 40° C. and 75% humidity for 1 month the impurities changed from 0.33% to 0.85%, compared to 0.19% and 0.10% for the unmicronised sample.

The mark [5] stands for this setting: after 40° C. and 75% humidity for 1 month.

Turning to `CCOc1nc2cccc(C(=O)OC(C)OC(=O)OC3CCCCC3)c2n1Cc1ccc(-c2ccccc2-c2nnn[nH]2)cc1` (centres unmarked) [Candesartan cilexetil], in data set [1], the solubility at 60 min was less than 0.1 µg/mL. Besides, the “solubility in phosphate buffer” value in data set [2] (phosphate buffer pH=7.0, at 37° C.) was “less than 0.2 μg/ml”. Also, the water solubility in data set [2] (water, at 37° C.) is 0.5 µg/mL (≈ 0.819 µM).

In the case of `Cc1ccc(-c2cc(C(F)(F)F)nn2-c2ccc(S(N)(=O)=O)cc2)cc1` [Celecoxib, 4-[5-(4-methylphenyl)-3-(trifluoromethyl)pyrazol-1-yl]benzenesulfonamide], the solubility at 60 min in data set [3] was determined as 0.3 µg/mL (≈ 0.787 µM).

As to `CCOc1nc2cccc(C(=O)OC(C)OC(=O)OC3CCCCC3)c2n1Cc1ccc(-c2ccccc2-c2nnn[nH]2)cc1` (centres unmarked) [micronized candesartan cilexetil, candesartan cilexetil], the impurities in data set [4] (setting [5]) was found to be 0.85%; in data set [4] (initial, before storage), 0.33%.

On to `CCOc1nc2cccc(C(=O)OC(C)OC(=O)OC3CCCCC3)c2n1Cc1ccc(-c2ccccc2-c2nnn[nH]2)cc1` (centres unmarked) [unmicronised sample, candesartan cilexetil], for which the impurities was 0.10% in data set [4] (setting [5]) and 0.19% in data set [4] (initial, before storage).

One may read the solubility as the dissolved amount per volume that the medium holds.
